According to BindingDB's records for patent US11440899 (Merck Patent GmbH, 2022):

Experiments:
[1] = target: T1, Serine/threonine-protein kinase TBK1 (Homo sapiens, UniProt Q9UHD2); test: TBK Biochemical Assay
T1 sequence (Q9UHD2 whole entry): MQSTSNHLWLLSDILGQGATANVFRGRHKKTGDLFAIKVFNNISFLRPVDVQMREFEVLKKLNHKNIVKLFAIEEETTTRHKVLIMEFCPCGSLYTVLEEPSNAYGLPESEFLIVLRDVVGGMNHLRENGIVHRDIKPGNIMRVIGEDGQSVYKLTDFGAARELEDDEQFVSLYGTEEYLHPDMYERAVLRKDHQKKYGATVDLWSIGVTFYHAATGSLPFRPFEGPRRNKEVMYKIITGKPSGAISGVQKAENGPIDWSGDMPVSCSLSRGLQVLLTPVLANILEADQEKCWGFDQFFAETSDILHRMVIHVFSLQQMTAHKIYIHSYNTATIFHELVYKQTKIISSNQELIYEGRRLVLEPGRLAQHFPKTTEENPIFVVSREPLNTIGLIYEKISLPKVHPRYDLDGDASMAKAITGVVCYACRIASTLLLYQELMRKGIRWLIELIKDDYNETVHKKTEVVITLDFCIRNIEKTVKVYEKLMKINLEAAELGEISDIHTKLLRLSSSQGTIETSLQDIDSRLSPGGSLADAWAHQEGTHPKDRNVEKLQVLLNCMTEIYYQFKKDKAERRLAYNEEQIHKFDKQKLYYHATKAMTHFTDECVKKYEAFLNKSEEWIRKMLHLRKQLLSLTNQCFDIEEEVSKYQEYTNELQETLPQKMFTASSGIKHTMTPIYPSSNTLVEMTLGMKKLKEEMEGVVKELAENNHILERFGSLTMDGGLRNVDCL
Experimental: (§1) Test compounds were transferred into Labcyte polypropylene 384 well plates (P055-25) and diluted to 3 mM using DMSO. 3 mM test compounds were dispensed using Labcyte ECHO dose response module into Greiner 784075 plates (columns 3-12 and 13-22, 10 point 1:4) so that high concentration was 30 uM final. 100 uM of a reference compound (1 uM final high concentration). Backfilling was performed if necessary so that all wells contain 1% DMSO final:add 75 nl DMSO/well into columns 1, 2 and 24 using Labcyte Echo.add 75 nl 1.0 mM staurosporine/well into column 23 using Labcyte Echo (10 uM final)add 4.5 ul enzyme/well using multidrop dispenseradd 3 ul substrate/well using multidrop dispenserincubate at 25° C. in Heidolph incubator for 90 min.add 7.5 ul 2× stop buffer using multidrop dispenserread on labchip ez reader II using TBK1.jobRaw data files were opened in the Caliper LabChip Reviewer program (Version 3.0.265.0 SP2) and peak assignments were adjusted to reflect substrate first with the software's post-run analysis options. A spline-fit baseline was applied using the software's analysis algorithm.

[2] = target: T2, Inhibitor of nuclear factor kappa-B kinase subunit epsilon (Homo sapiens, UniProt Q14164); test: IKKe Biochemical Assay
T2 sequence (Q14164 whole entry): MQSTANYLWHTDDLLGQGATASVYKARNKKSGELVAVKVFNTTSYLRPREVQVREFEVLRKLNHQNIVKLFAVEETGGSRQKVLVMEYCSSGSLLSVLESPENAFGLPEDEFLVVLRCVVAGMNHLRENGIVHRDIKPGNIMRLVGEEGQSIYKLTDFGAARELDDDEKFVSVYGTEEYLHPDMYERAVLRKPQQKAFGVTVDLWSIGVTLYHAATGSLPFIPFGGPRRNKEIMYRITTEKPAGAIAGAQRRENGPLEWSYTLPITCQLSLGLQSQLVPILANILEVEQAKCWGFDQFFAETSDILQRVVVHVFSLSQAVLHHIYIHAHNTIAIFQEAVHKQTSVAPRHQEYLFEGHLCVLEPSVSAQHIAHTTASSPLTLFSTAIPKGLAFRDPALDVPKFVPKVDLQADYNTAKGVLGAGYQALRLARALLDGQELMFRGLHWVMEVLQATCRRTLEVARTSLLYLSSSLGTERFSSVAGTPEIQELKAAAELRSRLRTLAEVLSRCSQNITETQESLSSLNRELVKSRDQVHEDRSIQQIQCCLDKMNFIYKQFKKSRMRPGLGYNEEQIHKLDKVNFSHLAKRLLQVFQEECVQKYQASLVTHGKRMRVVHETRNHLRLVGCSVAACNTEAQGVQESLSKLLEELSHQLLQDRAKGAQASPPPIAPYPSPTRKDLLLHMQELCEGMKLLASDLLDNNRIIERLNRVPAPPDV
Experimental: as §1, with “C.” for “C. in Heidolph incubator”, “bufferread” for “buffer using multidrop dispenserread”, “IKKε. jobRaw” for “TBK1.jobRaw”

IC50 [1]: < 100 nM | IC50 [2]: < 100 nM
SMILES: COc1nc(Nc2cc(-c3ccc(O[C@@H]4CCN(C(=O)[C@@H](C)O)CC4(F)F)c(C#N)c3)ncn2)ccc1N1CCN(C2COC2)CC1 [US11440899, Example 96]
